The source of these data is patent US20240383915A1, “OXAZEPINE COMPOUNDS AND USES THEREOF IN THE TREATMENT OF CANCER” (Genentech, Inc., priority 2021, published 2024).

The target of assay [1] is KRas(G12V) (Homo sapiens (Human), UniProt P01116, G12V). Briefly: KRas(G12V) GDP HTRF (BODIPY-GDP exchange TR-FRET). Format: biochemical. For orientation: In TR-FRET formats the signal depends on donor and acceptor labels being close together.
Assay [2] concerns the target KRas (Homo sapiens (Human), UniProt P01116). Briefly: KRas GDP HTRF (BODIPY-GDP exchange TR-FRET). The format is biochemical. In outline:
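Inhibition of SOS1-mediated exchange of BODIPY-GDP on KRAS G12D, started with 3 nM recombinant human SOS1 and 300 nM BODIPY-GDP and read after 60 min. TR-FRET excitation 337 nm, ratio 520/490 nm ×10,000. IC50 from 4-parameter Hill fit of normalized data.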

The subject of assay [3] is SW480 cells. Briefly: SW480 proliferation assay. The format is cell-based. To be noted: Homo sapiens, SW480, SW480; read-out: SW480 Prolif IC50 (G12V).
The subject of assay [4] is PC-9 cells. Briefly: PC9 proliferation assay. The format is cell-based, human. To be noted: Homo sapiens, PC-9, PC9; read-out: PC9 Prolif IC50 (G12V).

Chain of KRas(G12V) (P01116-2 other isoform, or with tags, fused parts or gaps G12V): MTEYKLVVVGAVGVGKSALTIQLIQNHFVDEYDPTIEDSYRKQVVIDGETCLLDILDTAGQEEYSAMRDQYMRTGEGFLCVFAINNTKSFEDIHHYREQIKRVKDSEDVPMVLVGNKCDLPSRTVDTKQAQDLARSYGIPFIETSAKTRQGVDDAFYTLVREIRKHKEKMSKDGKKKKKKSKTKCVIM
Chain of KRas (P01116-2 other isoform, or with tags, fused parts or gaps): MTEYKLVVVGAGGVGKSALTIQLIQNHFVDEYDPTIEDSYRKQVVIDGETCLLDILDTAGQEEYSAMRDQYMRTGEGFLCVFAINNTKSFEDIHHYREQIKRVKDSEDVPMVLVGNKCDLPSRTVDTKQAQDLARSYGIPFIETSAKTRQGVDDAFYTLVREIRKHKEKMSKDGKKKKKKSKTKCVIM

Usually IC50 stands for the concentration needed to halve the response being measured. On to `Cc1cc(N)nc(-c2c(Cl)c3c4c(nc(OC[C@@]56CCN5CC(F)(F)C6)nc4c2F)N([C@H](C)c2cccnc2N)CCO3)c1C(F)(F)F` (atropisomer, axis not shown) [Example 114a, 6-((R)-4-((R)-1-(2-aminopyridin-3-yl)ethyl)-8-chloro-2-(((S)-3,3-difluoro-1-azabicyclo[3.2.0]heptan-5-yl)methoxy)-10-fluoro-5,6-dihydro-4H-[1,4]oxazepino[5,6,7-de]quinazolin-9-yl)-4-methyl-5-(trifluoromethyl)pyridin-2-amine], for which the IC50 in assay [1] is 0.24 nM; in assay [2] it was 0.39 nM; in assay [3], 3.2 nM; in assay [4], 7 µM.

Take `Cc1cc(N)nc(-c2c(Cl)c3c4c(nc(OC[C@]56CCN5CC(F)(F)C6)nc4c2F)N([C@H](C)c2cccnc2N)CCO3)c1C(F)(F)F` (atropisomer, axis not shown) [Example 114b, 6-((R)-4-((R)-1-(2-aminopyridin-3-yl)ethyl)-8-chloro-2-(((R)-3,3-difluoro-1-azabicyclo[3.2.0]heptan-5-yl)methoxy)-10-fluoro-5,6-dihydro-4H-[1,4]oxazepino[5,6,7-de]quinazolin-9-yl)-4-methyl-5-(trifluoromethyl)pyridin-2-amine]: the IC50 came out at 0.22 nM in assay [1], 0.46 nM in assay [2], 3 nM in assay [3] and 7.6 µM in assay [4].

As for `Cc1cc(N)nc(-c2c(Cl)c3c4c(nc(OC[C@@H]5CCCN5CC(F)F)nc4c2F)N([C@H](C)c2cccnc2N)CCO3)c1C(F)(F)F` (atropisomer, axis not shown) [Example 115, 6-((R)-4-((R)-1-(2-aminopyridin-3-yl)ethyl)-8-chloro-2-(((S)-1-(2,2-difluoroethyl)pyrrolidin-2-yl)methoxy)-10-fluoro-5,6-dihydro-4H-[1,4]oxazepino[5,6,7-de]quinazolin-9-yl)-4-methyl-5-(trifluoromethyl)pyridin-2-amine], the IC50 in assay [1] came to 0.47 nM; in assay [2], 0.9 nM; in assay [3], 16 nM; in assay [4], 15 µM.

Regarding `C=C1CN2CCC[C@@]2(COc2nc3c4c(c(Cl)c(-c5nc(N)cc(C)c5C(F)(F)F)c(F)c4n2)OCCN3[C@H](C)c2cccnc2N)C1` (atropisomer, axis not shown) [Example 116, 6-((R)-4-((R)-1-(2-aminopyridin-3-yl)ethyl)-8-chloro-10-fluoro-2-(((S)-2-methylenetetrahydro-1H-pyrrolizin-7a(5H)-yl)methoxy)-5,6-dihydro-4H-[1,4]oxazepino[5,6,7-de]quinazolin-9-yl)-4-methyl-5-(trifluoromethyl)pyridin-2-amine], the IC50 in assay [1] was found to be 0.074 nM; in assay [2], 0.0519 nM; in assay [3] it was 4.6 nM; in assay [4], 1.6 µM.

With `Cc1cc(N)nc(-c2c(Cl)c3c4c(nc(OC[C@@H]5CCCN5C5COC5)nc4c2F)N([C@H](C)c2cccnc2N)CCO3)c1C(F)(F)F` (atropisomer, axis not shown) [Example 117, 6-((R)-4-((R)-1-(2-aminopyridin-3-yl)ethyl)-8-chloro-10-fluoro-2-(((S)-1-(oxetan-3-yl)pyrrolidin-2-yl)methoxy)-5,6-dihydro-4H-[1,4]oxazepino[5,6,7-de]quinazolin-9-yl)-4-methyl-5-(trifluoromethyl)pyridin-2-amine], the IC50 in assay [1] came out at 0.08 nM; in assay [2], 0.18 nM; in assay [3], 12 nM; in assay [4] it was 6.3 µM.

For the compound `Cc1cc(N)nc(-c2c(Cl)c3c4c(nc(OC[C@@H]5CCC(=O)N5)nc4c2F)N([C@H](C)c2cccnc2N)CCO3)c1C(F)(F)F` (atropisomer, axis not shown) [Example 121, (S)-5-((((R)-9-(6-amino-4-methyl-3-(trifluoromethyl)pyridin-2-yl)-4-((R)-1-(2-aminopyridin-3-yl)ethyl)-8-chloro-10-fluoro-5,6-dihydro-4H-[1,4]oxazepino[5,6,7-de]quinazolin-2-yl)oxy)methyl)pyrrolidin-2-one], the IC50 was 0.07 nM in assay [1], 0.437 nM in assay [2], 1100 nM in assay [3] and 4.9 µM in assay [4].

On to `Cc1cc(N)nc(-c2c(Cl)c3c4c(nc(OC[C@]5(C)CC(F)(F)CN5C)nc4c2F)N([C@H](C)c2cccnc2N)CCO3)c1C(F)(F)F` (atropisomer, axis not shown) [Example 122a, 6-((R)-4-((R)-1-(2-aminopyridin-3-yl)ethyl)-8-chloro-2-(((S)-4,4-difluoro-1,2-dimethylpyrrolidin-2-yl)methoxy)-10-fluoro-5,6-dihydro-4H-[1,4]oxazepino[5,6,7-de]quinazolin-9-yl)-4-methyl-5-(trifluoromethyl)pyridin-2-amine], for which the IC50 in assay [1] is 0.5 nM; in assay [2] it was 4.49 nM; in assay [3] it was 180 nM; in assay [4] it was 2.9 µM.

With `Cc1cc(N)nc(-c2c(Cl)c3c4c(nc(OC[C@@]5(C)CC(F)(F)CN5C)nc4c2F)N([C@H](C)c2cccnc2N)CCO3)c1C(F)(F)F` (atropisomer, axis not shown) [Example 122b, 6-((R)-4-((R)-1-(2-aminopyridin-3-yl)ethyl)-8-chloro-2-(((R)-4,4-difluoro-1,2-dimethylpyrrolidin-2-yl)methoxy)-10-fluoro-5,6-dihydro-4H-[1,4]oxazepino[5,6,7-de]quinazolin-9-yl)-4-methyl-5-(trifluoromethyl)pyridin-2-amine], the IC50 in assay [1] was found to be 0.095 nM; in assay [2], 0.202 nM; in assay [3], 17 nM; in assay [4], 9.4 µM.

For `Cc1cc(N)nc(-c2c(Cl)c3c4c(nc(OC[C@H]5CN(C)CCO5)nc4c2F)N([C@H](C)c2cccnc2N)CCO3)c1C(F)(F)F` (atropisomer, axis not shown) [Example 124, 6-((R)-4-((R)-1-(2-aminopyridin-3-yl)ethyl)-8-chloro-10-fluoro-2-(((R)-4-methylmorpholin-2-yl)methoxy)-5,6-dihydro-4H-[1,4]oxazepino[5,6,7-de]quinazolin-9-yl)-4-methyl-5-(trifluoromethyl)pyridin-2-amine], the IC50 in assay [1] came out at 0.1 nM; in assay [2] it was 0.204 nM; in assay [3], 70 nM; in assay [4], 2.7 µM.

As to `Cc1cc(N)nc(-c2c(Cl)c3c4c(nc(OC[C@@H]5C[C@@H](F)CN5C)nc4c2F)N([C@@H]2CCCc4ccnc(N)c42)CCO3)c1C(F)(F)F` (atropisomer, axis not shown) [Example 132, (R)-8-((R)-9-(6-amino-4-methyl-3-(trifluoromethyl)pyridin-2-yl)-8-chloro-10-fluoro-2-(((2S,4R)-4-fluoro-1-methylpyrrolidin-2-yl)methoxy)-5,6-dihydro-4H-[1,4]oxazepino[5,6,7-de]quinazolin-4-yl)-5,6,7,8-tetrahydroisoquinolin-1-amine], the IC50 was determined as 0.13 nM in assay [1], 0.273 nM in assay [2], 39 nM in assay [3] and 3.2 µM in assay [4].

`Cc1cc(N)nc(-c2c(Cl)c3c4c(nc(OCCN5CCN(C)CC5)nc4c2F)N([C@H](C)c2cccnc2N)CCO3)c1C(F)(F)F` (atropisomer, axis not shown) [Example 135, 6-((R)-4-((R)-1-(2-aminopyridin-3-yl)ethyl)-8-chloro-10-fluoro-2-(2-(4-methylpiperazin-1-yl)ethoxy)-5,6-dihydro-4H-[1,4]oxazepino[5,6,7-de]quinazolin-9-yl)-4-methyl-5-(trifluoromethyl)pyridin-2-amine]: the IC50 in assay [1] was found to be 0.08 nM; in assay [2] it was 0.37 nM; in assay [3], 390 nM; in assay [4], 1.5 µM.

As to `Cc1cc(N)nc(-c2c(Cl)c3c4c(nc(OCCn5cccn5)nc4c2F)N([C@H](C)c2cccnc2N)CCO3)c1C(F)(F)F` (atropisomer, axis not shown) [Example 136, 6-((R)-2-(2-(1H-pyrazol-1-yl)ethoxy)-4-((R)-1-(2-aminopyridin-3-yl)ethyl)-8-chloro-10-fluoro-5,6-dihydro-4H-[1,4]oxazepino[5,6,7-de]quinazolin-9-yl)-4-methyl-5-(trifluoromethyl)pyridin-2-amine], the IC50 in assay [1] came to 0.21 nM; in assay [2] it was 0.83 nM; in assay [3], 63 nM; in assay [4], 8.6 µM.

On to `Cc1cc(N)nc(-c2c(Cl)c3c4c(nc(OCC5(C#N)CCOCC5)nc4c2F)N([C@H](C)c2cccnc2N)CCO3)c1C(F)(F)F` (atropisomer, axis not shown) [Example 142, 4-((((R)-9-(6-amino-4-methyl-3-(trifluoromethyl)pyridin-2-yl)-4-((R)-1-(2-aminopyridin-3-yl)ethyl)-8-chloro-10-fluoro-5,6-dihydro-4H-[1,4]oxazepino[5,6,7-de]quinazolin-2-yl)oxy)methyl)tetrahydro-2H-pyran-4-carbonitrile], for which the IC50 in assay [1] was 0.31 nM; in assay [2] it was 1.1 nM; in assay [3], 120 nM; in assay [4], 7.7 µM.

With `Cc1cc(N)nc(-c2c(Cl)c3c4c(nc(OCC5(C)CCOCC5)nc4c2F)N([C@H](C)c2cccnc2N)CCO3)c1C(F)(F)F` (atropisomer, axis not shown) [Example 144, 6-((R)-4-((R)-1-(2-aminopyridin-3-yl)ethyl)-8-chloro-10-fluoro-2-((4-methyltetrahydro-2H-pyran-4-yl)methoxy)-5,6-dihydro-4H-[1,4]oxazepino[5,6,7-de]quinazolin-9-yl)-4-methyl-5-(trifluoromethyl)pyridin-2-amine], the IC50 in assay [1] amounted to 1.4 nM; in assay [2], 4.4 nM; in assay [3], 520 nM; in assay [4] it was 6 µM.
